“And” between values parts separate entries of the source, which are not always exact repeats. Identical values can stand only once.
Tests used:
in vitro [1] = details: human
in vitro [2] = details: African green monkey, CC50
Cytotoxicity on CCRF-CEM = details: human, CCRF-CEM cells, CC50, Cytotoxicity control, CCRF-CEM, CellTiter MTS
[3] = Cytotoxicity control on HepG2 (CellTiter MTS); details: human, HepG2 cells
[4] = test system: Norwalk virus (replicon) GT1; experiment: Norwalk virus replicon (GT1) in HG23, RNA hybridization; type: cell-based, Norwalk virus (human norovirus)
MNV MNV-1 = experiment: Murine norovirus (MNV-1) antiviral screen in RAW267.4; type: cell-based; details: MNV-1, RAW267.4, Example 11; for EC50: unit from Conc. Range
RAW267.4 = experiment: Toxicity in RAW267.4 cells (neutral red); details: Neutral Red (Toxicity), Example 11
[5] = test system: Hepatitis C virus (replicon) clone B (genotype 1a); experiment: HCV genotype 1a HuH-7 clone B subgenomic replicon RNA replication; type: cell-based, human hepatitis C virus; details: 10 μM
[6] = test system: cellular ribosomal RNA (rRNA) synthesis; experiment: Cellular ribosomal RNA synthesis in HCV replicon cells (TaqMan RT-qPCR); type: cell-based; details: 10 μM
in vitro [7] = details: human; remark: listed apart in the source
[8] = Toxicity in RAW267.4 cells (neutral red); details: mouse, RAW267.4 cells, CC50, Neutral Red (Toxicity), Example 11
HIV-1 LAV = experiment: Inhibition of inducible HIV-1 LAV replication in OM-10.1 (RT values); type: cell-based, human immunodeficiency virus type 1; details: for RT Values: SAMPLE 1-3, MEAN
[9] = Toxicity in OM-10.1 (Cell Titer 96); details: human, OM-10.1 cells
OM-10.1 cells = experiment: Toxicity in OM-10.1 (Cell Titer 96); details: for TOXICITY VALUES (Cell Titer 96): SAMPLE 1-3, MEAN
[10] = Norwalk virus, GT1, HG23, Norwalk virus (replicon) GT1, HG23, Table 10
[11] = RAW267.4, Neutral Red (Cytopathology)
[12] = Human immunodeficiency virus 1, OM-10.1

C[C@@H]1C[C@@H]([C@H](O)CC2CC(=O)NC(=O)C2)C(=O)[C@@H](C)C1 [Cycloheximide]
CC50 (in vitro [1]): 0.5 µM | CC50 (in vitro [2]): 0.2 µM | CC50 (Cytotoxicity on CCRF-CEM): 0.1 µM | CC50 [3]: 0.6 µM

CC#CC1(O)CCC2C3CCC4=CC(=NNC(=S)Nc5ccccc5)CCC4=C3C(c3ccc4c(c3)OCO4)CC21C.CC#CC1(O)CCC2C3CCC4=CC(=O)CCC4=C3C(c3ccc4c(c3)OCO4)CC21C (mixture of isomers) [PT156, 1/17(11β,17β)-17-Hydroxy-11-[3,4-(methylenedioxy)phenyl]-17-(1-propyn-1-yl)estra-4,9-dien-3-one (ORG34517)×(2EZ)-2-{(11β,17β)-17-hydroxy-11-[3,4-(methylenedioxy)phenyl]-17-(1-propyn-1-yl)estra-4,9-dien-3-ylidene}-N-phenylhydrazinecarbothioamide [74.1% (E), 25.9% (Z)] 11/17hydrate]
EC90 ([4]; RNA Hybridization (Replicon), NV GT1, HG23, Example 10): > 100 µM | EC50 ([4]; RNA Hybridization (Replicon), NV GT1, HG23, Example 10, unit from Conc. Range): > 100 µM | EC90 (MNV MNV-1; Neutral Red (Cytopathology)): 0.29 µM | EC50 (MNV MNV-1; Neutral Red (Cytopathology)): 0.091 µM | CC50 (HG23): > 100 µM | CC50 (RAW267.4): 33 µM

C[C@@]1(O)[C@H](O)[C@@H](CO)O[C@H]1n1ccc(N)nc1=O [2′-C-methylcytidine (RS-446), 2′-C-methylcytidine, reference compound]
TaqMan RT-qPCR threshold cycle value difference (ΔCT) of HCV replicon RNA synthesis [5]: 5.72 | Inhibition of HCV replicon RNA syntheses at the fixed concentration of 10 μM of the test compound ([5]; HuH-7 clone B): 98.08% | EC50 [4, 10]: 6.9 µM | EC90 [4, 10]: 18 µM | EC90 ([4]; Norwalk virus, GT1, HG23, RNA Hybridization (Replicon), NV GT1, HG23, Example 10): 19 µM | EC50 ([4]; Norwalk virus, GT1, HG23, RNA Hybridization (Replicon), NV GT1, HG23, Example 10, unit from Conc. Range): 6.4 µM | EC90 (MNV MNV-1; [11]): 3.1 µM | EC50 (MNV MNV-1; [11]): 1 µM | Inhibition of cellular ribosomal RNA (rRNA) synthesis at the fixed concentration of 10 μM of the test compound [6]: 31.09% | CC50 (in vitro [7]): > 300 µM | CC50 [8]: > 30 µM

O=c1c2ccccc2n2nnc3ccc(NCCCN4CCN(CCCNc5ccc6nnn7c8ccccc8c(=O)c5c67)CC4)c1c32 [Temacrazine (TMZ)]
% VC (HIV-1 LAV; 0.10 nM): 96.8% | RT Values (HIV-1 LAV; 0.10 nM): 30380 cpm and 31745 cpm and 26409 cpm | % VC (HIV-1 LAV; 1.00 nM): 87.9% | RT Values (HIV-1 LAV; 1.00 nM): 32770 cpm and 23041 cpm and 24504 cpm | % VC (HIV-1 LAV; 3.16 nM): 92.4% | RT Values (HIV-1 LAV; 3.16 nM): 30588 cpm and 25259 cpm and 28648 cpm | % VC (HIV-1 LAV; 10.0 nM): 99.6% | RT Values (HIV-1 LAV; 10.0 nM): 27453 cpm and 31623 cpm and 31990 cpm | % VC (HIV-1 LAV; 31.6 nM): 87.0% | RT Values (HIV-1 LAV; 31.6 nM): 25515 cpm and 24677 cpm and 29321 cpm | % VC (HIV-1 LAV; 100 nM): 37.5% | % VC (HIV-1 LAV; 316 nM): 22.7% | RT Values (HIV-1 LAV; 316 nM): 6512 cpm and 5272 cpm and 8986 cpm | % VC (HIV-1 LAV; 1000 nM): 2.0% | EC50 (HIV-1 LAV; Human immunodeficiency virus 1): 0.07 µM | EC90 (HIV-1 LAV; Human immunodeficiency virus 1): 0.64 µM | IC50 (HIV-1 LAV; [12]): 0.0748 µM | IC90 (HIV-1 LAV; [12]): 0.641 µM | IC 95% (HIV-1 LAV; OM-10.1): 0.847 µM | Selectivity Index (CC50/EC50) (HIV-1 LAV; OM-10.1, Table 7): >0.13 | CC50 [9]: > 1 µM | % CC (OM-10.1 cells; 0.10 nM): 108.4% | TOXICITY VALUES (Cell Titer 96) (OM-10.1 cells; 0.10 nM): 0.727 O.D. @ 490/650 nm and 0.895 O.D. @ 490/650 nm and 0.621 O.D. @ 490/650 nm | % CC (OM-10.1 cells; 1.00 nM): 109.3% | TOXICITY VALUES (Cell Titer 96) (OM-10.1 cells; 1.00 nM): 0.781 O.D. @ 490/650 nm and 0.744 O.D. @ 490/650 nm and 0.736 O.D. @ 490/650 nm | % CC (OM-10.1 cells; 3.16 nM): 126.3% | TOXICITY VALUES (Cell Titer 96) (OM-10.1 cells; 3.16 nM): 0.830 O.D. @ 490/650 nm and 0.933 O.D. @ 490/650 nm and 0.849 O.D. @ 490/650 nm | % CC (OM-10.1 cells; 10.0 nM): 137.0% | TOXICITY VALUES (Cell Titer 96) (OM-10.1 cells; 10.0 nM): 0.882 O.D. @ 490/650 nm and 0.999 O.D. @ 490/650 nm and 0.954 O.D. @ 490/650 nm | % CC (OM-10.1 cells; 31.6 nM): 138.1% | TOXICITY VALUES (Cell Titer 96) (OM-10.1 cells; 31.6 nM): 0.967 O.D. @ 490/650 nm and 0.902 O.D. @ 490/650 nm and 0.988 O.D. @ 490/650 nm | % CC (OM-10.1 cells; 100 nM): 138.2% | TOXICITY VALUES (Cell Titer 96) (OM-10.1 cells; 100 nM): 0.917 O.D. @ 490/650 nm and 0.990 O.D. @ 490/650 nm and 0.952 O.D. @ 490/650 nm | % CC (OM-10.1 cells; 316 nM): 136.7% | TOXICITY VALUES (Cell Titer 96) (OM-10.1 cells; 316 nM): 0.977 O.D. @ 490/650 nm and 1.037 O.D. @ 490/650 nm and 0.813 O.D. @ 490/650 nm | % CC (OM-10.1 cells; 1000 nM): 129.9% | TOXICITY VALUES (Cell Titer 96) (OM-10.1 cells; 1000 nM): 0.897 O.D. @ 490/650 nm and 0.910 O.D. @ 490/650 nm and 0.879 O.D. @ 490/650 nm | TC 90% (OM-10.1 cells; OM-10.1): >1 µM | TC 95% (OM-10.1 cells; OM-10.1): >1 µM | CC50 (OM-10.1 cells; read-out: TC 50%, OM-10.1): > 1 µM
